In the supplement of paper PMC10307832:

Legend:
Test in all cases: relative viability (nuclei count vs DMSO), 5 days (fraction); higher = more cells survive
Wnt-C59 + Bortezomib = compound: CC1=NC=CC(=C1)C2=CC=C(C=C2)CC(=O)NC3=CC=C(C=C3)C4=CN=CC=C4 [Wnt-C59] + CC(C)C[C@H](NC(=O)[C@H](Cc1ccccc1)NC(=O)c1cnccn1)B(O)O [Bortezomib] (partner 0.002 µM)
In short: (§1)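 Relative viability equals treated-well nuclei counts divided by vehicle-well nuclei counts. Counts came from 4× images of lung cancer cell lines grown in 1536-well plates for 5 days after pin-tool dosing on the day after seeding. Dosing used one drug alone or a fixed anchor-drug dose plus five library-drug doses (not always all listed) in √10 steps, and values are medians of duplicate plates.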

Wnt-C59 + Foretinib = compound: CC1=NC=CC(=C1)C2=CC=C(C=C2)CC(=O)NC3=CC=C(C=C3)C4=CN=CC=C4 [Wnt-C59] + COc1cc2c(Oc3ccc(NC(=O)C4(C(=O)Nc5ccc(F)cc5)CC4)cc3F)ccnc2cc1OCCCN1CCOCC1 [Foretinib] (partner 0.25 µM)
In short: as §1

Wnt-C59 + Pemetrexed = compound: CC1=NC=CC(=C1)C2=CC=C(C=C2)CC(=O)NC3=CC=C(C=C3)C4=CN=CC=C4 [Wnt-C59] + Nc1nc2[nH]cc(CCc3ccc(C(=O)N[C@@H](CCC(=O)O)C(=O)O)cc3)c2c(=O)[nH]1 [Pemetrexed] (partner 0.2 µM)
In short: as §1

Lapatinib + Bortezomib = compound: CS(=O)(=O)CCNCc1ccc(-c2ccc3ncnc(Nc4ccc(OCc5cccc(F)c5)c(Cl)c4)c3c2)o1 [Lapatinib] + CC(C)C[C@H](NC(=O)[C@H](Cc1ccccc1)NC(=O)c1cnccn1)B(O)O [Bortezomib] (partner 0.002 µM)
In short: as §1

Cell Line | relative viability (Wnt-C59 + Bortezomib; first compound 0.001 µM) | relative viability (Wnt-C59 + Bortezomib; first compound 0.01 µM) | relative viability (Wnt-C59 + Bortezomib; first compound 0.03162 µM) | relative viability (Wnt-C59 + Bortezomib; first compound 0.1 µM) | relative viability (Wnt-C59 + Foretinib; first compound 0.001 µM) | relative viability (Wnt-C59 + Foretinib; first compound 0.01 µM) | relative viability (Wnt-C59 + Foretinib; first compound 0.03162 µM) | relative viability (Wnt-C59 + Foretinib; first compound 0.1 µM) | relative viability (Wnt-C59 + Pemetrexed; first compound 0.001 µM) | relative viability (Wnt-C59 + Pemetrexed; first compound 0.01 µM) | relative viability (Wnt-C59 + Pemetrexed; first compound 0.03162 µM) | relative viability (Wnt-C59 + Pemetrexed; first compound 0.1 µM) | relative viability (Lapatinib + Bortezomib; first compound 0.02 µM) | relative viability (Lapatinib + Bortezomib; first compound 0.06325 µM) | relative viability (Lapatinib + Bortezomib; first compound 0.2 µM) | relative viability (Lapatinib + Bortezomib; first compound 0.6325 µM) | relative viability (Lapatinib + Bortezomib; first compound 2 µM)
RERF-LC-KJ | 1.07 | 1.05 | 1.22 | 1.21 | 0.889 | 0.832 | 0.915 | 0.926 | 0.483 | 0.497 | 0.45 | 0.495 | 0.911 | 0.948 | 1.02 | 0.983 | 0.766
SW 1573 | 1.04 | 1.1 | 1.11 | 1.04 | 1.13 | 1.03 | 0.879 | 0.784 | 0.863 | 0.848 | 0.879 | 0.761 | 1.01 | 0.892 | 0.953 | 1.18 | 1.01
NCI-H23 | 1.04 | 1.07 | 0.905 | 0.962 | 0.952 | 0.97 | 0.967 | 1.02 | 0.589 | 0.595 | 0.59 | 0.703 |  |  | 1.02 | 1.07 | 0.813
HCC-15 | 1.01 | 1.02 | 1.03 | 0.994 | 1.09 | 1.09 | 1.04 | 0.992 | 0.228 | 0.235 | 0.215 | 0.225 |  | 1.06 | 1.02 | 1 | 0.979
NCI-H1650 | 0.21 | 0.219 | 0.205 | 0.219 | 1.26 | 1.2 | 1.31 | 1.08 | 0.354 | 0.442 | 0.38 | 0.422 | 0.203 | 0.206 | 0.223 | 0.192 | 0.243
LU99A | 1.11 | 1.08 | 1.07 | 1.1 | 0.845 | 0.853 | 0.963 | 0.831 | 0.205 | 0.195 | 0.178 | 0.195 | 1.05 | 0.932 | 1.15 | 1.15 | 0.94
HOP-62 | 0.826 | 0.752 | 0.658 | 0.931 | 1.1 | 1.06 | 1.07 | 1.19 | 0.34 | 0.294 | 0.353 | 0.29 |  | 0.857 | 0.577 | 0.99 | 0.761
LXF-289 | 0.969 | 0.965 | 0.99 | 1.02 | 0.991 | 0.98 | 1.01 | 0.979 | 0.897 | 0.827 | 0.916 | 0.91 | 0.972 | 0.931 | 0.981 | 1 | 0.929
